Data taken from paper PMC3997506, “Novel PPAR Pan Agonist, ZBH Ameliorates Hyperlipidemia and Insulin Resistance in High Fat Diet Induced Hyperlipidemic Hamster” (PLoS ONE, 2014).
pEC50: −log10 of the molar value.

Key:
SIRT1 = biological target: T1, SIRT1 (Homo sapiens, UniProt Q96EB6); assay: SIRT1 enzyme activity assay (Direct Fluorescent Screening Assay kit); type: biochemical; details: read-out: SIRT1 maximal activation
T1 construct: purchased Cayman chemical
T1 sequence (Q96EB6 1-747): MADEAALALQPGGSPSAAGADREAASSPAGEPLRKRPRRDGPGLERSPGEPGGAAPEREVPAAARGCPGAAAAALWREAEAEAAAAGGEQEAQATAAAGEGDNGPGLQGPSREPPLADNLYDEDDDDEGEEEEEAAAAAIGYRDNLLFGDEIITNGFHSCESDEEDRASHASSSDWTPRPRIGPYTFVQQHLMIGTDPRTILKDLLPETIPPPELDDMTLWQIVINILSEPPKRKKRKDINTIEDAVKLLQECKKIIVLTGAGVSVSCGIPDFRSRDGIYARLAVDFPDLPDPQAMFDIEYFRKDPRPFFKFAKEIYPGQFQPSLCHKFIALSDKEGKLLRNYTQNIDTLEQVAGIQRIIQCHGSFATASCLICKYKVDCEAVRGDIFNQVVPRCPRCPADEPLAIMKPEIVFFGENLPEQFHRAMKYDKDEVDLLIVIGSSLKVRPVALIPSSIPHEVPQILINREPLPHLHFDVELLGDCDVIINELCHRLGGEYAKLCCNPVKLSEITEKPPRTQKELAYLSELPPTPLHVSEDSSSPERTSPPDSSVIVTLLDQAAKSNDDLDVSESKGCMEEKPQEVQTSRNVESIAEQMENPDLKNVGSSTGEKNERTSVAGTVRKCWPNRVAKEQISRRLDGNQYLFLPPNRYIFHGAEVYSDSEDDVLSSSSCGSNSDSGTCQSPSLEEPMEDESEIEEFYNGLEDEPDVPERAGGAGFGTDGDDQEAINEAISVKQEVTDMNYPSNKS
Protocol: SIRT1 enzyme activity was assayed with the SIRT1 Direct Fluorescent Screening Assay kit (Cayman chemical, MI, USA), according to the manufacturer’s instructions. Fluorescence was measured on an EnVision Multilabel Plate Reader (PerkinElmer, CA, USA). DMSO was used as a negative control and also as a solvent for resveratrol and ZBH.
Figure 4 Activation of SIRT1 by ZBH. SIRT1 enzyme activity was measured after treatment with ZBH and Resveratrol, and the fluorescence was tested on EnVision Multilabel Plate Reader. Values are mean±SE, n = 3.

SIRT1 mRNA = assay: Quantitative real-time PCR of tissues of hyperlipidemic hamsters; type: in vivo, golden Syrian hamsters (Mesocricetus auratus); details: short-term (3 days) and chronic (5 weeks) treatment
Protocol: To determine the relative mRNA expression levels of lipid metabolism-related genes, total RNA was isolated from the liver, white adipose tissue (WAT) or muscle and real-time PCR was performed with the ABI PRISM 7300 sequence detection system (Applied Biosystems, Warrington, UK) as previously described. The relative amount of all mRNAs was calculated using the comparative CT method. Target gene expression is presented relative to β-actin expression.
Figure 9 Effects of ZBH on gene expression in hyperlipidemic hamsters. Relative gene expression of the indicated genes in the liver (A and B), WAT (C and D) and skeletal muscle (E and F) of hyperlipidemic hamsters following 3 days (A, C and E) and/or 5 weeks (B, D and F) of ZBH or BEZ administration was determined by QPCR. Results are normalized to β-actin and expressed as mean fold increase of mRNA ±SD compared to the normal hamsters (NC). n = 3. *P<0.05, **P<0.01, ***P<0.001 vs. MC group.

Kunming mice = details: stated in Introduction, no method given; cited from earlier work
[1] = stated in Introduction, no method given; cited from earlier work
hPPARα = biological target: T2, hPPARα (Homo sapiens, UniProt Q07869); assay: In vitro transactivation assay, GAL4-hPPAR luciferase reporter in HEK-293 cells; type: cell-based
T2 sequence (Q07869 200-468 limits assumed): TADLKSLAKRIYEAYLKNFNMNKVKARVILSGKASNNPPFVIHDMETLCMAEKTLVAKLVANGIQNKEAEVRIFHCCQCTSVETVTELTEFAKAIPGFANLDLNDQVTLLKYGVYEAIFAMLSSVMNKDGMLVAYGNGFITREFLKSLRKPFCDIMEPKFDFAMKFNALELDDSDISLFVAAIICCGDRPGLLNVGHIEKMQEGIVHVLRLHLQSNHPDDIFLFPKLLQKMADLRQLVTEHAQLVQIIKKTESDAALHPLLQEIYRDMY
Protocol: (§1) Transactivation of PPARs was analyzed in a cell-based luciferase reporter assay using HEK-293 cells transiently transfected to express hPPAR-GAL4 chimeric receptors with plasmids GAL4-hPPAR α, γ, or δ, and pUAS (5x)-tk-luc receptor vector as previously described. 24 h after transfection, cells were treated with the indicated compounds, followed by the measurement of luciferase activity 24 h later. Mean values represent those obtained from at least three independent experiments performed in triplicate and normalized by the Renilla luciferase reading.
(§2) HEK-293 cells transiently transfected to express hPPAR-GAL4 chimeric receptors with plasmids GAL4-hPPAR α, γ, or δ, and pUAS (5x)-tk-luc receptor vector. 24 h after transfection, cells were treated with the indicated compounds at various concentrations followed by the measurement of luciferase activity 24 h after treatment. The results shown are the mean values obtained from at least three independent experiments performed in triplicate normalized by the Renilla luciferase reading.

hPPARδ = biological target: T3, hPPARδ (Homo sapiens, UniProt Q03181); assay: as above; type: cell-based; details: HEK-293, 24 h treatment
T3 sequence (Q03181 171-441 limits assumed): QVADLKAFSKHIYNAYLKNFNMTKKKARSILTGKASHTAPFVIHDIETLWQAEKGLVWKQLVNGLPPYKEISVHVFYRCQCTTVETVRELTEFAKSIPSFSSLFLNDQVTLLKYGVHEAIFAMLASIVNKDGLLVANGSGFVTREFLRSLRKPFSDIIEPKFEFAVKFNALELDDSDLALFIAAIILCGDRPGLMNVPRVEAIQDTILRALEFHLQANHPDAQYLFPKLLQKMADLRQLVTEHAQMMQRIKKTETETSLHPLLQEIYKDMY
Protocol: as §1, §2

hPPARγ = biological target: T4, hPPARγ (Homo sapiens, UniProt P37231); assay: as above; type: cell-based; details: HEK-293, 24 h treatment
T4 sequence (P37231 238-505 limits assumed): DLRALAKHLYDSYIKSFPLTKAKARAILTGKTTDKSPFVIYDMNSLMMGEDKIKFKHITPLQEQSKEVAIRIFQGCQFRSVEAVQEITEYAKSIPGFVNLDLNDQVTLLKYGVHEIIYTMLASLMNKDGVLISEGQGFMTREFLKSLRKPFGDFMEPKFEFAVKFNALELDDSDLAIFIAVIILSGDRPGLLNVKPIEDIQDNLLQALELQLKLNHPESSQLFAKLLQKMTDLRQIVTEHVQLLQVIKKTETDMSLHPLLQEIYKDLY
Protocol: as §1, §2

For `COc1ccc(/C=C/c2cc(OC)cc(OCCCC(C)(C)C(=O)O)c2)cc1` [ZBH, (E)-5-(3-methoxy-5-(4-methoxystyryl)phenoxy) -2,2-dimethylpentanoic acid], the Emax (SIRT1) is given as 136%, the “SIRT1 mRNA expression in liver, adipose tissue and skeletal muscle” value (SIRT1 mRNA) is given as “upregulated” and the “oral LD50” value (Kunming mice) is given as over 1200 mg/kg. The oral bioavailability [1] was 67%, the “PPARα transactivation selectivity over other PPAR subtypes (EC50 fold)” value (hPPARα; Discussion) was 11 fold and the “maximal activation of PPARα” value (hPPARα; HEK-293) was “approximately 11 fold”. For the same compound, the pEC50 (hPPARα; HEK-293, 24 h treatment) was 5.76, the “PPARα activation potency (EC50) relative to bezafibrate” value (hPPARα; ZBH vs bezafibrate) was 21 fold and the “PPARα activation exceeds PPARγ activation” value (hPPARα; selectivity α over γ) was 14 fold. For the same compound, the “PPARα activation exceeds PPARδ activation” value (hPPARα; selectivity α over δ) was 11 fold, the pEC50 (hPPARδ) was 4.72 and the pEC50 (hPPARγ) was 4.60.
